Values of other authors, collected in patent US20190192686A1, “TARGETED NANODROPLET EMULSIONS FOR TREATING CANCER” (The University of Louisville Research Foundation,, priority 2016, published 2019).

Target: plasma membrane nucleolin (Homo sapiens, UniProt P19338)
Set-up: key: ^1: Indicates a good plasma membrane nucleolin-binding GRO.; ^2: Indicates a nucleolin control (non-plasma membrane nucleolin binding)
Conditions: superscript designation in Table 1

Chain of plasma membrane nucleolin (P19338 whole entry): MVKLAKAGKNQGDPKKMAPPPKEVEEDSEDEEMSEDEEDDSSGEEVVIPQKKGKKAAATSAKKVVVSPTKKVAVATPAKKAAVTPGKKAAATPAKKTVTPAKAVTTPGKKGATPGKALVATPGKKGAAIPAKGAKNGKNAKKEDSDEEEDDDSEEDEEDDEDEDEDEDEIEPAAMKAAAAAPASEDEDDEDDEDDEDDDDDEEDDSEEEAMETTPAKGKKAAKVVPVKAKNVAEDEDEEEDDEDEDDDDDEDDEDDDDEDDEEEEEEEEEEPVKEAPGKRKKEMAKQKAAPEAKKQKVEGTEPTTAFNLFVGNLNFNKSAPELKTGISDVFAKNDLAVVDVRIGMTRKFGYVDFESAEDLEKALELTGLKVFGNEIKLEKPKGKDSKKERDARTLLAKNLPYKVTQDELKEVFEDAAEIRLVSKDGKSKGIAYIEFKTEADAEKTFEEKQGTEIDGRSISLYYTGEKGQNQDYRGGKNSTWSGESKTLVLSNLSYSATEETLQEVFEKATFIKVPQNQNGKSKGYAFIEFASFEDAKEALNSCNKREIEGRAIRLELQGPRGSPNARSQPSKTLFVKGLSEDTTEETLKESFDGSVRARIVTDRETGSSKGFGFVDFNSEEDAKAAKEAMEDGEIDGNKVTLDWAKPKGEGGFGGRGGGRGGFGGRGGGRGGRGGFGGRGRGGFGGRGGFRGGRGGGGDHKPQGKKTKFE

Substance | plasma membrane nucleolin binding
GRO T: ggggttgggg tgtggggttg ggg (GGGGTTGGGGTGTGGGGTTGGGG; listed as DNA, chemistry not given here) | GRO T^2
GRO P: tggggt | GRO P^2
GRO N: tttcctcctc ctccttctcc tcctcctcc (TTTCCTCCTCCTCCTTCTCCTCCTCCTCC; listed as DNA, chemistry not fully specified) | GRO N^2
GRO S: tagg (TAGG; listed as DNA, chemistry not given here) | GRO S^2
GRO Q: gcatgct (GCATGCT; listed as DNA, chemistry not given here) | GRO Q^2
GRO I: gggttttggg (DNA GGGTTTTGGG; listed as DNA, chemistry not fully specified) | GRO I^1
GRO H: ggggttttgg gg (DNA GGGGTTTTGGGG; listed as DNA, chemistry not fully specified) | GRO H^1
GRO M: ggttttggtt ttggttttgg ttttgg (GGTTTTGGTTTTGGTTTTGGTTTTGG; aptamer; listed as DNA, chemistry not fully specified) | GRO M^1
GRO G: ggttggtgtg gttgg | GRO G^1
GRO O: cctcctcctc cttctcctcc tcctcc (CCTCCTCCTCCTTCTCCTCCTCCTCC; aptamer; listed as DNA, chemistry not fully specified) | GRO O^2
GRO K: ttggggttgg ggttggggtt gggg (DNA TTGGGGTTGGGGTTGGGGTTGGGG; listed as DNA, chemistry not fully specified) | GRO K^1
GRO15B: ttgggggggg tgggt (TTGGGGGGGGTGGGT; listed as DNA, chemistry not fully specified) | GRO15B^2
GRO26B: ggtggtggtg gttgtggtgg tggtgg | GRO26B^1
GRO J: ggggttttgg ggttttgggg ttttgggg (DNA GGGGTTTTGGGGTTTTGGGGTTTTGGGG; listed as DNA, chemistry not fully specified) | GRO J^1
GRO R: gcggtttgcg g (GCGGTTTGCGG; listed as DNA, chemistry not given here) | GRO R^2
